# Assay results from patent US20040044037A1, “Amidino-urea serotonin receptor ligands and compositions, their pharmaceutical uses, and methods for their snythesis” (priority 2003, published 2004).
# pKi: −log10 of the molar value.
# Key:
# [1] = molecular target: T1, human D2S dopamine (hD2S-DA) receptors (Homo sapiens, UniProt P14416); assay: Competition radioligand binding, hD2S dopamine; details: [3H]Spiperone; membranes of A9 L cells; read-out: Ki D2
# T1 construct: purchased Receptor Biology, Inc. (Beltsville, Md.); host or cells: A9 L cells
# T1 sequence (P14416 1-414 isoform P14416-2): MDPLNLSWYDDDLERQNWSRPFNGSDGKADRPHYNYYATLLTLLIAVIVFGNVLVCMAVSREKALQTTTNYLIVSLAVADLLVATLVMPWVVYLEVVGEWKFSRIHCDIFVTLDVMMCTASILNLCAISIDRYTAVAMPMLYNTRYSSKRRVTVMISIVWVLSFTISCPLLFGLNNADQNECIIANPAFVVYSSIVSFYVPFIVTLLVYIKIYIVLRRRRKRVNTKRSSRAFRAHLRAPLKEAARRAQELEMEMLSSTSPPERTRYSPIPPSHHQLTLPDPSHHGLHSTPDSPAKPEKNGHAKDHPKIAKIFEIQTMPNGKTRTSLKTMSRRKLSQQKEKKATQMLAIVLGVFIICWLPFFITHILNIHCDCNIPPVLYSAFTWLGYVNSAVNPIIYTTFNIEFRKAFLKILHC
# [2] = molecular target: T2, human 5-HT7B (h5-HT7b) receptors (Homo sapiens, UniProt P34969); assay: Competition radioligand binding, h5-HT7b; details: [3H]5-CT; membranes of HEK 293 cells; read-out: Ki 5-HT7
# T2 construct: expressed in transfected cells
# T2 sequence (P34969 1-432 limits assumed): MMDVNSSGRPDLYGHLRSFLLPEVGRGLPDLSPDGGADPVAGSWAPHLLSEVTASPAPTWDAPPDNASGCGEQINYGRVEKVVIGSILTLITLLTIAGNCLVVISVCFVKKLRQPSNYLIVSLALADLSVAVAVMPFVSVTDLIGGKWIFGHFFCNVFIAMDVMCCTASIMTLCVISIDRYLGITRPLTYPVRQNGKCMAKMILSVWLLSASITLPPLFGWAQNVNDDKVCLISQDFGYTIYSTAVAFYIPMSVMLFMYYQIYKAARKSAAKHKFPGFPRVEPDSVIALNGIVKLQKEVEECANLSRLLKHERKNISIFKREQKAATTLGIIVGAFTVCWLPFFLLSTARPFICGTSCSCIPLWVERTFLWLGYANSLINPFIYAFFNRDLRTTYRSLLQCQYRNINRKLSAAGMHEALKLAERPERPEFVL
# Description: The compounds of the invention interact with 5-HT receptors and show selectivity for 5-HT receptors. The 5-HT receptor binding properties of the compounds are identified by competitive radioligand binding assays wherein membranes prepared from transfected cells expressing the 5-HT receptor subtype of interest. “Binding constants” refers herein to Ki values measured by inhibition of the binding of radiolabelled ligands that are selective for the 5-HT receptor type being studied. For 5-HT7 receptors, Ki values are determined by measuring the inhibition of 5-carboxamidotryptamine (5-CT) binding, wherein 5-HT7 receptors were incubated with the radiolabelled high affinity ligand, 5-carboxamidotryptamine ([^3H]5-CT), in the presence and absence of the compounds of the invention, at varying concentrations. The compounds of the invention have high binding affinity for serotonin receptors as measured by dissociation constant Ki. […] “Selectivity” for receptor type, in the context of this invention, refers to the ratio of binding constants for the two receptor types being compared. […] The compounds of the present invention preferably show selectivity for 5-HT7 receptors over other serotonin receptor subtypes of greater than about 100. The compounds of the present invention also preferably show selectivity for 5-HT7 receptors over other receptor types, such as dopamine D2, of greater than about 100.
# Cells and Membrane Preparation: HEK 293 cells stably expressing human 5-HT7B (h5-HT7b) receptors were grown in Dulbecco's Modified Eagle's Medium (DMEM; Gibco) without sodium pyruvate and containing 4.5 g/L glucose, L-glutamine/penicillin-streptomycin (Gemini), 10% fetal bovine serum and 250 mg/l of the antibiotic, G418 (Geneticin) as previously described (Jasper, J. R., Kosaka, A., To, Z. P., Chang, D. J. and Eglen, R. M. (1997) Cloning, expression and pharmacology of a truncated splice variant of the human 5-ht7 receptor (h5-ht7b). Br. J. Pharmacol. 122(1):126-132.). Cell pellets were homogenized in approximately 50 mL of homogenization buffer (buffer A) containing: 50 mM Tris (pH 7.4), 2 mM EGTA, 0.32 M sucrose, 10 μM PMSF, 1 μg/mL leupeptin, 5 μg/mL Pepstatin A, and 5 μg/mL aprotinin using an UltraTurax homogenizer (Tekmar Company, Cincinnati, Ohio) at 80% maximum setting three times for 10 sec. Cell pellets were centrifuged at 4° C. at 1,500×g for 10 min in a Beckman GS-6R centrifuge. Pellets were resuspended in buffer A, homogenized and centrifuged as described above. Pooled supernatants were transferred to centrifuge bottles and centrifuged at 4° C. at 20,000×g for 30 min in a Beckman J2-HS centrifuge. Cell pellets were resuspended in buffer A and were centrifuged at 4° C. at 20,000×g for 30 min. Cell pellets were resuspended in buffer A and stored at −70° C. in aliquots of 2.5 mg/mL total membrane protein. Total membrane protein was assessed utilizing a BCA kit (Pierce; Rockford, Ill.). Membranes containing human 5-HT1a or 5HT2a receptors expressed in CHO K1 cells were prepared as described above.
# Radioligand Binding Assays: For 5-HT7 saturation binding experiments, HEK-293 cell membranes expressing h5-HT7 receptors (5-10 μg membrane protein/well) were incubated in duplicate with [^3H]5-CT (approximately 0.2 nM) in binding assay buffer containing: 50 mM HEPES (pH 7.4), 0.5 mM EDTA, 10 mM MgCl2, 10 μM pargyline to inhibit monoamine oxidase activity, and 0.1% sodium ascorbate, in a final volume of 200 μL in 96-well polypropylene plates for 2 hours at 37° C. Nonspecific binding was determined by incubating membranes with 1 μM 5-HT. All radioligand binding assays were stopped by rapid filtration onto 96-well GF/C filter plates (Packard) soaked in 0.1% polyethylenimine. Filters were washed three times with ice-cold phosphate-buffered saline (PBS) wash buffer containing 50 mM NaPO4 (pH 7.4), 0.9% NaCl, 2 mM MgCl2 and 0.02% NaN3. The filters were then counted using liquid scintillation in a Packard Topcount scintillation counter. […]
# [3] = molecular target: T3, human 5-HT6 (h5-HT6) receptors (Homo sapiens, UniProt P50406); assay: Competition radioligand binding, h5-HT6; details: [3H]LSD; membranes of HEK-293 cells; read-out: Ki 5-HT6
# T3 construct: purchased Receptor Biology, Inc. (Beltsville, Md.); host or cells: HEK-293 cells
# T3 sequence (P50406 whole entry): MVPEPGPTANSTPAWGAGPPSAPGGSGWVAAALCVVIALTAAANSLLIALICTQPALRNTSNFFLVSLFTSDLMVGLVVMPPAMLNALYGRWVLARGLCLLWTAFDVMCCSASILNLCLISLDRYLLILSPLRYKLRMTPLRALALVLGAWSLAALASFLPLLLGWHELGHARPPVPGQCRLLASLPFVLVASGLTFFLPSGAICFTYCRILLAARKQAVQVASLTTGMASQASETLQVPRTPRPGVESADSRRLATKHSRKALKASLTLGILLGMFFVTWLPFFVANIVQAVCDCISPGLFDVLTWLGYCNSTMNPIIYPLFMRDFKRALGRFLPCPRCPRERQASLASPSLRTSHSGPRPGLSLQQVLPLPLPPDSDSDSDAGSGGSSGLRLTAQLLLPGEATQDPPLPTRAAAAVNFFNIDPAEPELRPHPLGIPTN
SMILES,pKi [1],pKi [2],pKi [3]
"N=C(NCc1cccc2ccccc12)NC(=O)NCC1CCNCC1 [Example 2, 4-({[({Imino[(1-naphthylmethyl)amino]methyl}amino)carbonyl]amino}methyl)piperidine]",< 5.60,7.34,5.49
"COC(=O)NC(=N)NCc1cccc2ccccc12 [Example 4, Methylimino[(1-naphthylmethyl)amino]methylcarbamate]",–,6.09,–
"N=C(NC(=O)NCc1cccc(Cl)c1Cl)NC1CCCCC1O (stereo not drawn) [Example 9, 1,2-Dichloro-3-{[({[[(2-hydroxycyclohexyl)amino](imino)methyl]amino}carbonyl)amino]methyl}benzene]",–,6.49,–
"Cc1ccccc1CNC(=O)NC(=N)NCCc1ccccn1 [Example 10, 2-(2-{[Imino([{(2-methylbenzyl)amino]carbonyl}amino)methyl]amino}ethyl)pyridine]",< 5.60,6.60,–
N=C(NCc1cccc2ccccc12)NC(=O)NCCCn1ccnc1 [Example 11],6.04,7.60,6.04
"N=C(NCc1cccc2ccccc12)NC(=O)N1CCCC(C(N)=O)C1 (stereo not drawn) [Example 12, 1-[({Imino[(1-naphthylmethyl)amino]methyl}amino)carbonyl]-3-piperidine carboxamide]",–,6.74,–
CN1CCCC1CCNC(=O)NC(=N)NCc1cccc2ccccc12 (stereo not drawn) [Example 13],5.72,7.49,5.52
"N=C(NCc1cccc2ccccc12)NC(=O)NC1CCCCC1O (stereo not drawn) [Example 14, 1-({[({[(2-Hydroxycyclohexyl)amino]carbonyl}amino)(imino)methyl]amino}methyl)naphthalene]",6.34,7.96,5.90
"N=C(NCc1cccc2ccccc12)NC(=O)NCCCO [Example 16, 1-({[({[(3-Hydroxypropyl)amino}carbonyl}amino)(imino)methyl]amino}methyl)naphthalene]",6.30,7.68,6.32
"N=C(NCc1cccc2ccccc12)NC(=O)NCc1cccc(CN)c1 [Example 17, 1-({[[({[3-(Aminomethyl)benzyl]amino}carbonyl)amino](imino)methyl]amino}methyl)naphthalene]",6.32,7.96,6.17
"N=C(NCc1cccc2ccccc12)NC(=O)N[C@@H](CO)c1ccccc1 [Example 19, 1-({[[({[(1R)-2-Hydroxy-1-phenylethyl]amino}carbonyl)amino](imino)methyl]amino}methyl)naphthalene]",6.70,6.96,6.03
"N=C(NCc1cccc2ccccc12)NC(=O)NCc1cccs1 [Example 20, 2-({[({Imino[(1-naphthylmethyl)amino]methyl}amino)carbonyl]amino}methyl)thiophene]",6.27,7.80,5.87
"CC(=O)NCCNC(=O)NC(=N)NCc1cccc2ccccc12 [Example 26, N-(2-{[({Imino[(1-naphthylmethyl)amino]methyl}amino)carbonyl]amino}ethyl)acetamide]",< 5.60,8.00,5.84
"N=C(NCc1cccc2ccccc12)NC(=O)Nc1cccc(C(N)=O)c1 [Example 27, 3-{[({Imino[(1-naphthylmethyl)amino]methyl}amino)carbonyl]amino}benzamide]",< 5.60,7.74,7.10
"COc1ccc(CNC(=O)NC(=N)NCc2cccc3ccccc23)cc1 [Example 28, 1-({[Imino({[(4-methoxybenzyl)amino]carbonyl}amino)methyl]amino}methyl)naphthalene]",6.30,7.37,5.47
"CC(O)CNC(=O)NC(=N)NCc1cccc2ccccc12 (stereo not drawn) [Example 30, 1({[({[(2-Hydroxypropyl)amino]carbonyl}amino)(imino)methyl]amino}methyl) naphthalene]",5.80,7.89,5.82
"N=C(NCc1cccc2ccccc12)NC(=O)NCCc1ccc(O)cc1 [Example 31, 1-({[({[(4-Hydroxyphenethyl)amino]carbonyl}amino)(imino)methyl]amino}methyl) naphthalene]",–,7.72,–
"N=C(NCc1cccc2ccccc12)NC(=O)NCc1ccc(F)cc1 [Example 32, 1-({[({[(4-Fluorobenzyl)amino]carbonyl}amino)(imino)methyl]amino}methyl)naphthalene]",6.11,7.62,5.89
"N=C(NCc1cccc2ccccc12)NC(=O)NCCc1ccc(N)cc1 [Example 33, 1-({[({[(4-Amninophenethyl)amino]carbonyl}amino)(imino)methyl]amino}methyl) naphthalene]",6.05,7.32,5.91
"N=C(NCc1cccc2ccccc12)NC(=O)NC1CC1 [Example 34, 1-({[{[(Cyclopropylamino)carbonyl]amino}(imino)methyl]amino}methyl)naphthalene]",5.75,7.89,5.11
"N=C(NCc1cccc2ccccc12)NC(=O)N1CCNCC1 [Example 37, N-(1-Naphthylmethyl)-N′-(1-piperazinylcarbonyl)guanidine]",–,6.03,–
"COCCCNC(=O)NC(=N)NCc1cccc2ccccc12 [Example 38, 1-(3-Imino-5-oxo-10-oxa-2,4,6-triazaundec-1-yl)naphthalene]",< 5.60,7.85,5.93
"N=C(NCc1cccc2ccccc12)NC(=O)NCCc1c[nH]c2ccc(Cl)cc12 [Example 39, 5-Chloro-3-(2-{[({imino[(1-naphthylmethyl)amino]methyl}amino)carbonyl]amino}ethyl)-1H-indole]",6.40,6.92,5.93
"CNC(=O)/N=C(/NCc1cccc2ccccc12)NC(=O)NC [Example 52, N-Methyl-N′-{(Z)-{[(methylamino)carbonyl]amino}[(1-naphthylmethyl)amino]methylidene}urea]",–,6.00,–
"COc1ccccc1N1CCN(C(=O)NC(=N)N[C@H](C)c2ccc3ccccc3c2)CC1 [Example 82, N-{[4-(2-Methoxyphenyl)-1-piperazinyl]carbonyl}-N′-[(1R)-1-(2-naphthyl)ethyl]guanidine]",–,5.97,–
"COc1ccccc1N1CCN(C(=O)NC(=N)N[C@H](C)c2cccc3ccccc23)CC1 [Example 83, N-{[4-(2-Methoxyphenyl)-1-piperazinyl]carbonyl}-N′-[(1R)-1-(1-naphthyl)ethyl]guanidine]",–,6.12,–
"COc1ccc(CNC(=N)NC(C)=O)c2ccccc12 [Example 88, N-Acetyl-N′-[(4-methoxy-1-naphthyl)methyl]guanidine]",–,5.91,–
O=C(Nc1nc2ccccc2[nH]1)Nc1cc(F)ccc1F [Example 89],–,5.57,–
